Laboratory results as given in paper PMC11359809, “Probing the molecular basis for signal transduction through the Zinc-Activated Channel (ZAC)” (Biochemical pharmacology, 2021).

Columns and labels:
Assay type in all cases: cell-based
WT m5-HT3AR = target: T1, WT m5-HT3AR (Mus musculus, UniProt P23979); assay: TEVC in Xenopus oocytes expressing WT m5-HT3AR; details: 5-HT 30 μM
T1 construct: expressed in transfected cells; host or cells: Xenopus oocytes injected with cRNA (pUNIV vector)
T1 sequence (P23979 24-489): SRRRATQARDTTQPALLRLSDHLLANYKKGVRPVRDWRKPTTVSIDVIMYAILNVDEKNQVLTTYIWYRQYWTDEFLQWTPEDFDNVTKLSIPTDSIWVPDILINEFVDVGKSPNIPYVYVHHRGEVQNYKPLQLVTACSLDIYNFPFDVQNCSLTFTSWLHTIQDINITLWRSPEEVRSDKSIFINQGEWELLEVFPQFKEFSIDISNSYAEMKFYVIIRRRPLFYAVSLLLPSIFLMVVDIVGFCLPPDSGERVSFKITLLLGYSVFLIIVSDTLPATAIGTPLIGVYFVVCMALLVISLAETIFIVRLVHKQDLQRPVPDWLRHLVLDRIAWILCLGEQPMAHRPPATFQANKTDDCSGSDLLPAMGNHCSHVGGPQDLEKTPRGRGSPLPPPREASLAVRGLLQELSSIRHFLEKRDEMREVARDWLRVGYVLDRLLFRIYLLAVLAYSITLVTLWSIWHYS
Experimental: (§1) The recordings were performed at room temperature.
(§2) Analysis of the data from the TEVC recordings were performed using Clampfit software version 10.5 (Molecular Devices, Crawley, UK) and GraphPad Prism version 7.0c (GraphPad Software, La Jolla, CA). Unless otherwise stated, the inward currents induced by agonists in oocytes were normalized to the maximal response elicited by a specific agonist (agonist Imax) on each oocyte. Concentration-response and concentration-inhibition curves were fitted in GraphPad Prism by nonlinear regression using the equation for sigmoidal dose-response with variable slope. Each data point represents the mean ± S.E.M. value of recordings performed on at least five oocytes in total from at least two different batches. For the data where statistical analysis was performed, a one-way ANOVA was used. The null hypothesis was rejected at P < 0.05, and the differences between the means were analyzed by Tukey’s multiple comparisons test.

ZAC^H210A = target: T2, ZAC^H210A (Homo sapiens, UniProt Q401N2, A152T/H144A); assay: TEVC in oocytes, His120 Ala mutant; details: 10 mM Zn^2+
T2 construct: expressed in transfected cells; host or cells: Xenopus oocytes injected with cRNA (pUNIV vector)
T2 sequence (Q401N2 26-412 H144A/A152T): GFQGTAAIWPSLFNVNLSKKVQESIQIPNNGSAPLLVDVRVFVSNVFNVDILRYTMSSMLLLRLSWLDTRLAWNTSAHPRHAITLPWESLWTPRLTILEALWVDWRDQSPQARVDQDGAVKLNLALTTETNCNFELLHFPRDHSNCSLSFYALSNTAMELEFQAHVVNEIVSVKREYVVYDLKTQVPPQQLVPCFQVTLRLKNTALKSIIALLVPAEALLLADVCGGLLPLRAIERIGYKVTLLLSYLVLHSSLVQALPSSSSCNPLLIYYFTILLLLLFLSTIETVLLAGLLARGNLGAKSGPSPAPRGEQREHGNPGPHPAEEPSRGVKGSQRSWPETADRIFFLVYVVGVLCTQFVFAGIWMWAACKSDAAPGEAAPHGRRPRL
Experimental: as §1
as §2, with “For the data where statistical analysis was performed, a one-way ANOVA was used.” left out
The putative involvement of candidate residues in Clusters 1, 2, 3 and 4 in Zn^2+ binding to ZAC was investigated in by an elaborate alanine mutagenesis scanning. […] The determined IpH 4.0 value was used in part as a control and in part to enable the distinction of ZAC mutants non-responsive to Zn^2+ due to elimination of their ability to bind the metal ion from those where the mutation had eliminated cell surface expression and/or disrupted overall functionality of the receptor complex. […]

m5-HT3A/ZAC = target: T3, m5-HT3A/ZAC (Mus musculus / Homo sapiens, UniProt P23979); assay: TEVC in oocytes expressing m5-HT3A/ZAC chimera
T3 sequence (P23979 24-246): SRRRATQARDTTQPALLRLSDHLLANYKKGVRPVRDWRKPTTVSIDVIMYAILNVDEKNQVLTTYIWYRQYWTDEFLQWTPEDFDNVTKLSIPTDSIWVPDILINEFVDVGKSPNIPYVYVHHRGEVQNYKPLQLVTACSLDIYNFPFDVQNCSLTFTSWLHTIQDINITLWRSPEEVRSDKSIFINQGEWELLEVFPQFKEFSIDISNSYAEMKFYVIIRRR
T3 sequence (Q401N2 231-412 partner): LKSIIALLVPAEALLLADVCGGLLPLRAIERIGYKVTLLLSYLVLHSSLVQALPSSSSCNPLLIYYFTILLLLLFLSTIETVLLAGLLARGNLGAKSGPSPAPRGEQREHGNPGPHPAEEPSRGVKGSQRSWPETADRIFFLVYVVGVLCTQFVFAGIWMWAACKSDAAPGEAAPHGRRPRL
From the text: The construction of the ZAC-pUNIV plasmid (encoding for the human WT ZAC that contains a Thr in position 128) has been described previously. The m5-HT3A and hα1 GlyR cDNAs were subcloned from their original vectors into pUNIV (Addgene, Watertown, MA) using NheI and EcoRI as restriction enzymes. […] The C-terminus modifications in these four chimeras were introduced in their cDNAs in the same way. Point mutations were introduced in cDNAs by use of the QuikChange mutagenesis kit (Stratagene, San Diego, CA). The validity and absence of unwanted mutations in the constructed cDNAs was verified by DNA sequencing (Macrogen Europe, Amsterdam, The Netherlands).
All cDNAs used for cRNA synthesis were inserted in the pUNIV vector. The cDNAs were linearized and subsequently transcribed and capped using the mMessage mMachine T7 RNA transcription kit (Ambion, Waltham, MA). […] Oocytes were incubated in a sterile modified Barth’s solution [88 mM NaCl, 1 mM KCl, 15 mM HEPES (pH 7.5), 2.4 mM NaHCO3, 0.41 mM CaCl2, 0.82 mM MgSO4, 0.3 mM Ca(NO3)2, 100 U/ml penicillin and 100 μg/ml streptomycin] at 16–18 °C. Based on experience gained with WT ZAC in a recent study, all TEVC recordings were performed two days after cRNA injection.
On the day of the TEVC recording, all compound dilutions were prepared in a saline solution [115 mM NaCl, 2.5 mM KCl, 10 mM MOPS (pH 7.5), 1.8 mM CaCl2, 0.1 mM MgCl2], and pH was adjusted to 7.5 (if needed). Oocytes were placed in a recording chamber continuously perfused with this saline solution, and the compounds were applied in the perfusate. Both voltage and current electrodes were agar-plugged with 3 M KCl with a resistance of 0.2–2.0 MΩ. Oocytes were voltage-clamped at −50 mV (except in the studies of the chimeras and their parent receptors where they were clamped at −60 mV, section 3.1), by a Gene Clamp 500B amplifier, and current signals were digitized by a Digidata 1322A (both from Axon Instruments, Union City, CA). Currents were recorded using pCLAMP 10 (Molecular Devices, Sunnyvale, CA). The recordings were performed at room temperature.
In all recordings, compounds or compound combinations were applied in the bath until the peak current decayed to a steady state (up to 30 s). […] The antagonist properties of compounds were determined by pre-application of the compound to the perfusate for 30 s followed by co-application of the compound and the agonist. In all recordings, washes of 1–5 min were executed between the ligand applications, the length of the washes depending on the agonist concentrations used and on the return to baseline current amplitude.
as §2

What does the source list for `[Cl-].[Cl-].[Zn+2]` [Zn^2+, ZnCl2]?
modulation of 5-HT (EC80)-evoked currents (WT m5-HT3AR): potentiated the 5-HT-induced response through WT m5-HT3AR at low-micromolar concentrations and inhibited it at higher concentrations; I10 mM Zn2+ (ZAC^H210A): 5–30 nA; I10 mM Zn2+ ± S.E.M. (m5-HT3A/ZAC; 10 mM Zn^2+, n = 4): 0.0037 ± 0.0013 μA; modulation of 5-HT (EC80)-evoked currents (m5-HT3A/ZAC; 5-HT 1 μM): monophasic concentration-inhibition relationship
